Test: xn = mol fraction of the nth substance listed
Conditions: 101.3 kPa, Liquid; for viscosity: Capillary tube (Ostwald / Ubbelohde) method

OCCCO [propan-1,3-diol] + O
Conditions | mass density [kg/m3] | speed of sound [m/s] | viscosity [mPa·s]
298.15 K, x2 = 0.0622 | 1050.19 | 1650.1 | 37.15
298.15 K, x2 = 0.1496 | 1050.32 | 1654.3 | 32.92
298.15 K, x2 = 0.2563 | 1050.38 | 1670.2 | 27.68
298.15 K, x2 = 0.35 | 1050.3 | 1693.5 | 23.09
298.15 K, x2 = 0.4555 | 1049.74 | 1717.8 | 18.09
298.15 K, x2 = 0.5 | 1049.21 | 1723.1 | 16.07
298.15 K, x2 = 0.5548 | 1048.18 | 1726.1 | 13.67
298.15 K, x2 = 0.6522 | 1044.85 | 1723.3 | 9.731
298.15 K, x2 = 0.7553 | 1038.16 | 1712.1 | 6.136
298.15 K, x2 = 0.8522 | 1027.32 | 1689.1 | 3.434
298.15 K, x2 = 0.9085 | 1018.19 | 1653.2 | 2.22
298.15 K, x2 = 0.9147 | 1017.03 | 1646.8 | 2.104
298.15 K, x2 = 0.9255 | 1014.92 | 1636.1 | 1.91
298.15 K, x2 = 0.935 | 1012.97 | 1623.9 | 1.749
298.15 K, x2 = 0.9548 | 1008.63 | 1596 | 1.442
298.15 K, x2 = 0.9556 | 1008.44 | 1594 | 1.43
298.15 K, x2 = 0.9602 | 1007.37 | 1586 | 1.365
298.15 K, x2 = 0.97 | 1005 | 1568.2 | 1.233
298.15 K, x2 = 0.9801 | 1002.45 | 1547.1 | 1.107
298.15 K, x2 = 0.9897 | 999.9 | 1525.3 | 0.997
298.15 K, x2 = 0.9921 | 999.25 | 1519.1 | 0.971
298.15 K, x2 = 0.9951 | 998.42 | 1511 | 0.939
308.15 K, x2 = 0.0622 | 1043.88 | 1627.1 | 25.31
308.15 K, x2 = 0.1496 | 1044.01 | 1634.1 | 22.46
308.15 K, x2 = 0.2563 | 1044.07 | 1645.9 | 18.9
308.15 K, x2 = 0.35 | 1043.97 | 1662.2 | 15.8
308.15 K, x2 = 0.4555 | 1043.39 | 1681 | 12.44
308.15 K, x2 = 0.5 | 1042.86 | 1688 | 11.08
308.15 K, x2 = 0.5548 | 1041.87 | 1695.1 | 9.49
308.15 K, x2 = 0.6522 | 1038.75 | 1702.2 | 6.881
308.15 K, x2 = 0.7553 | 1032.55 | 1698.8 | 4.495
308.15 K, x2 = 0.8522 | 1022.53 | 1676.1 | 2.66
308.15 K, x2 = 0.9085 | 1014.02 | 1642.1 | 1.794
308.15 K, x2 = 0.9147 | 1012.94 | 1637.1 | 1.708
308.15 K, x2 = 0.9255 | 1010.96 | 1627.1 | 1.562
308.15 K, x2 = 0.935 | 1009.13 | 1617.2 | 1.439
308.15 K, x2 = 0.9548 | 1005.04 | 1594.1 | 1.197
308.15 K, x2 = 0.9556 | 1004.87 | 1593.1 | 1.188
308.15 K, x2 = 0.9602 | 1003.85 | 1586.2 | 1.135
308.15 K, x2 = 0.97 | 1001.61 | 1572.1 | 1.025
308.15 K, x2 = 0.9801 | 999.19 | 1556.1 | 0.917
308.15 K, x2 = 0.9897 | 996.76 | 1539.3 | 0.819
308.15 K, x2 = 0.9921 | 996.14 | 1534.1 | 0.795
308.15 K, x2 = 0.9951 | 995.35 | 1528.8 | 0.766
318.15 K, x2 = 0.0622 | 1037.53 | 1609.1 | 15.8
318.15 K, x2 = 0.1496 | 1037.64 | 1616 | 14.16
318.15 K, x2 = 0.2563 | 1037.68 | 1627.8 | 12.19
318.15 K, x2 = 0.35 | 1037.55 | 1643 | 10.48
318.15 K, x2 = 0.4555 | 1036.94 | 1661 | 8.554
318.15 K, x2 = 0.5 | 1036.42 | 1667 | 7.749
318.15 K, x2 = 0.5548 | 1035.46 | 1674.1 | 6.767
318.15 K, x2 = 0.6522 | 1032.48 | 1682 | 5.075
318.15 K, x2 = 0.7553 | 1026.64 | 1683 | 3.415
318.15 K, x2 = 0.8522 | 1017.23 | 1666.1 | 2.057
318.15 K, x2 = 0.9085 | 1009.22 | 1639.2 | 1.397
318.15 K, x2 = 0.9147 | 1008.19 | 1635.3 | 1.331
318.15 K, x2 = 0.9255 | 1006.32 | 1625.9 | 1.221
318.15 K, x2 = 0.935 | 1004.59 | 1617.9 | 1.127
318.15 K, x2 = 0.9548 | 1000.71 | 1598.1 | 0.945
318.15 K, x2 = 0.9556 | 1000.54 | 1592.2 | 0.938
318.15 K, x2 = 0.9602 | 999.58 | 1580.1 | 0.898
318.15 K, x2 = 0.97 | 997.45 | 1566.1 | 0.817
318.15 K, x2 = 0.9801 | 995.14 | 1552.1 | 0.737
318.15 K, x2 = 0.9897 | 992.82 | 1549.9 | 0.667
318.15 K, x2 = 0.9921 | 992.23 | 1548.1 | 0.65
318.15 K, x2 = 0.9951 | 991.47 | 1543.2 | 0.629
328.15 K, x2 = 0.0622 | 1031.1 | 1585.1 | 10.49
328.15 K, x2 = 0.1496 | 1031.18 | 1591.1 | 9.407
328.15 K, x2 = 0.2563 | 1031.17 | 1603.2 | 8.114
328.15 K, x2 = 0.35 | 1030.98 | 1618.2 | 6.986
328.15 K, x2 = 0.4555 | 1030.32 | 1635.8 | 5.721
328.15 K, x2 = 0.5 | 1029.79 | 1642.1 | 5.192
328.15 K, x2 = 0.5548 | 1028.83 | 1649.1 | 4.547
328.15 K, x2 = 0.6522 | 1025.94 | 1657.8 | 3.436
328.15 K, x2 = 0.7553 | 1020.39 | 1661.1 | 2.346
328.15 K, x2 = 0.8522 | 1011.49 | 1651.2 | 1.456
328.15 K, x2 = 0.9085 | 1003.89 | 1630 | 1.024
328.15 K, x2 = 0.9147 | 1002.92 | 1626.2 | 0.981
328.15 K, x2 = 0.9255 | 1001.14 | 1620.2 | 0.909
328.15 K, x2 = 0.935 | 999.49 | 1613.2 | 0.848
328.15 K, x2 = 0.9548 | 995.78 | 1597.2 | 0.729
328.15 K, x2 = 0.9556 | 995.62 | 1596.1 | 0.725
328.15 K, x2 = 0.9602 | 994.7 | 1591.8 | 0.699
328.15 K, x2 = 0.97 | 992.65 | 1582.1 | 0.646
328.15 K, x2 = 0.9801 | 990.44 | 1571.1 | 0.594
328.15 K, x2 = 0.9897 | 988.21 | 1559.2 | 0.549
328.15 K, x2 = 0.9921 | 987.63 | 1556.2 | 0.538
328.15 K, x2 = 0.9951 | 986.91 | 1552.2 | 0.524
338.15 K, x2 = 0.0622 | 1024.56 | 1565.1 | 7.386
338.15 K, x2 = 0.1496 | 1024.59 | 1571.2 | 6.633
338.15 K, x2 = 0.2563 | 1024.49 | 1582.3 | 5.732
338.15 K, x2 = 0.35 | 1024.2 | 1594.8 | 4.946
338.15 K, x2 = 0.4555 | 1023.41 | 1611.1 | 4.065
338.15 K, x2 = 0.5 | 1022.84 | 1616.8 | 3.696
338.15 K, x2 = 0.5548 | 1021.85 | 1623.9 | 3.247
338.15 K, x2 = 0.6522 | 1019 | 1634.1 | 2.473
338.15 K, x2 = 0.7553 | 1013.69 | 1639 | 1.715
338.15 K, x2 = 0.8522 | 1005.25 | 1632 | 1.096
338.15 K, x2 = 0.9085 | 998.04 | 1616 | 0.797
338.15 K, x2 = 0.9147 | 997.1 | 1613.2 | 0.767
338.15 K, x2 = 0.9255 | 995.41 | 1608.2 | 0.717
338.15 K, x2 = 0.935 | 993.83 | 1603.1 | 0.675
338.15 K, x2 = 0.9548 | 990.28 | 1591.1 | 0.593
338.15 K, x2 = 0.9556 | 990.13 | 1591.3 | 0.59
338.15 K, x2 = 0.9602 | 989.24 | 1587.1 | 0.572
338.15 K, x2 = 0.97 | 987.28 | 1579.9 | 0.536
338.15 K, x2 = 0.9801 | 985.14 | 1571 | 0.501
338.15 K, x2 = 0.9897 | 982.99 | 1562 | 0.469
338.15 K, x2 = 0.9921 | 982.43 | 1559.1 | 0.462
338.15 K, x2 = 0.9951 | 981.73 | 1556 | 0.453

Reference: the NIST ThermoML archive (doi:10.1021/je0340755)
